# What was measured:
# [1] = biological target: Histone deacetylase 4 (Homo sapiens) (UniProt P56524); assay: Inhibition on human recombinant HDAC4 at 10 uM measured after 20 min by luminescence glo assay
# PC-3 = assay: Cytotoxicity against human PC-3 cells measured after 72 hrs by MTT assay; assay type: functional, cell-based; details: PC-3, 72 h
# HCT-116 [2] = assay: Cytotoxicity against human HCT-116 cells measured after 72 hrs by MTT assay; assay type: functional, cell-based; details: HCT-116, 72 h
# NCI-H82 = assay: Cytotoxicity against human NCI-H82 cells measured after 72 hrs by MTT assay; assay type: functional, cell-based; details: NCI-H82, 72 h
# HEK293 = assay: Cytotoxicity against HEK293 cells at 10 uM measured after 24 to 48 hrs by Cell-titer glo assay relative to control; assay type: cell-based; details: human, hek293, 10 µM, time 24-48 hrs
# [3] = biological target: Histone deacetylase 9 (Homo sapiens) (UniProt Q9UKV0); assay: Inhibition on human recombinant HDAC9 at 10 uM measured after 20 min by luminescence glo assay
# Histone deacetylase 9 (Homo sapiens), sequence (Q9UKV0 whole entry): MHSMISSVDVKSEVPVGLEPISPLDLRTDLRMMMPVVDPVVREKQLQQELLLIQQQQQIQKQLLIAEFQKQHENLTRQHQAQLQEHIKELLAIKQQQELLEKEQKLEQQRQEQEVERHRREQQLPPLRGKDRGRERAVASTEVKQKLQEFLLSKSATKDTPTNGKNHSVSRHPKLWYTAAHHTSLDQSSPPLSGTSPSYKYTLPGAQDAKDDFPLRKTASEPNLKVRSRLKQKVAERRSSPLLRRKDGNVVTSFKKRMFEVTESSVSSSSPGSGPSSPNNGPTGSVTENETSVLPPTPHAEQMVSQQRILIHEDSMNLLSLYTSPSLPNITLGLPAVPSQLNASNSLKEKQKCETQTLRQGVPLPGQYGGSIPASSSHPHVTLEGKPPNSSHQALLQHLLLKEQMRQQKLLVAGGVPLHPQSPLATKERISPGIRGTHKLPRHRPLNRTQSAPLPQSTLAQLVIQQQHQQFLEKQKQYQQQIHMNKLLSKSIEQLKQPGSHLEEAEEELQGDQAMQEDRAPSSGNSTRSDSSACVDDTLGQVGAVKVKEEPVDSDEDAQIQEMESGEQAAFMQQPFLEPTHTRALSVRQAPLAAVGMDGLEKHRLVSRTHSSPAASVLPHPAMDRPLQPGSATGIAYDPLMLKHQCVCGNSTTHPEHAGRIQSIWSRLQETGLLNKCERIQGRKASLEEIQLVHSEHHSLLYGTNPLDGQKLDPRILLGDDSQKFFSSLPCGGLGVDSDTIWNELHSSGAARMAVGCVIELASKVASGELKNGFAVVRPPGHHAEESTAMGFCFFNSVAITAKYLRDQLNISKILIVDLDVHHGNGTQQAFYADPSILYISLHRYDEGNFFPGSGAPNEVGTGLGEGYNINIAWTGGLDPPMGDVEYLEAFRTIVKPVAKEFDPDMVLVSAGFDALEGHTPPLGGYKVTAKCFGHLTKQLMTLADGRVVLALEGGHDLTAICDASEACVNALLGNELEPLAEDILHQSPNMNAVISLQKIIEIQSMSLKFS
# TC-71 = assay: Anticlonogenic activity against human TC71 cells assessed as reduction of cell survival at 0.5 to 20 uM measured after 10 days by SRB staining clonogenic survival assay; assay type: functional, cell-based; details: dose 0.5-20 µM, time 10.0 day
# TC-32 = assay: Cytotoxicity against human TC-32 cells measured after 72 hrs by MTT assay; assay type: functional, cell-based; details: TC-32, 72 h
# [4] = Cytotoxicity against hTERT cells at 10 uM measured after 24 to 48 hrs by Cell-titer glo assay relative to control; assay type: cell-based; details: human, time 24-48 hrs
# MCF7 = assay: Cytotoxicity against human MCF7 cells measured after 72 hrs by MTT assay; assay type: functional, cell-based; details: MCF7, 72 h
# NCI-H69 = assay: Cytotoxicity against human NCI-H69 cells measured after 72 hrs by MTT assay; assay type: functional, cell-based; details: NCI-H69, 72 h
# [5] = biological target: T1, NAD-dependent protein deacetylase sirtuin-7 (Homo sapiens) (UniProt Q9NRC8); assay: Inhibition of human recombinant SIRT7 at 10 uM incubated for 20 mins followed by mixing and measure after 30 mins by Luminescence assay relative to control; details: time 50.0 min
# T1 sequence (whole entry): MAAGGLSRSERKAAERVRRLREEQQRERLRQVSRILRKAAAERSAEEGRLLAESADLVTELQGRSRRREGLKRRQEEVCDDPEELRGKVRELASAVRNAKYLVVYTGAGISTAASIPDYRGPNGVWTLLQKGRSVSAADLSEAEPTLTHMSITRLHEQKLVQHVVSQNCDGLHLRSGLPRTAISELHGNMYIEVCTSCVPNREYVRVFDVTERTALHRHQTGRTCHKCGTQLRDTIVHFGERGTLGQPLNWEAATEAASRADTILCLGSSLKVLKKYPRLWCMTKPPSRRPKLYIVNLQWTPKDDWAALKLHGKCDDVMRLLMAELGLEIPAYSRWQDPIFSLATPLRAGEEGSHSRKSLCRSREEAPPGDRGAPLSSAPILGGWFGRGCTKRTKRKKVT
# [6] = biological target: Aurora kinase B (Homo sapiens) (UniProt Q96GD4); assay: Inhibition of Aurora B kinase (unknown origin) at 10 uM in presence of ATP incubated for 30 min followed by addition of kinase glo-reagent measured after 20 mins by Luminescence based plate reader assay relative to control; details: time 50.0 min
# Aurora kinase B (Homo sapiens), sequence (Q96GD4 whole entry): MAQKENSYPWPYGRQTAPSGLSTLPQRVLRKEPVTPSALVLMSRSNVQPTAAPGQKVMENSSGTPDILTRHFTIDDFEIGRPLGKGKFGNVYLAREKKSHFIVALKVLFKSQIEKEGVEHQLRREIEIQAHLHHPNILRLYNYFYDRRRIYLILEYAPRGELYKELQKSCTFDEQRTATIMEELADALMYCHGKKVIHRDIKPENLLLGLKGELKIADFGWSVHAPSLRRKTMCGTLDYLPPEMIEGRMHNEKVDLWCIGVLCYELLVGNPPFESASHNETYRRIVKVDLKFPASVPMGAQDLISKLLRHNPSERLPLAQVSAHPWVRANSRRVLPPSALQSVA
# [7] = biological target: 3',5'-cyclic-AMP phosphodiesterase 4C (Homo sapiens) (UniProt Q08493); assay: Inhibition of PDE4C1 (unknown origin) at 10 uM incubated for 60 mins followed by addition of binding agent and measured after 20 mins by Fluorescence Polarization assay relative to control; details: time 80.0 min
# 3',5'-cyclic-AMP phosphodiesterase 4C (Homo sapiens), sequence (Q08493 whole entry): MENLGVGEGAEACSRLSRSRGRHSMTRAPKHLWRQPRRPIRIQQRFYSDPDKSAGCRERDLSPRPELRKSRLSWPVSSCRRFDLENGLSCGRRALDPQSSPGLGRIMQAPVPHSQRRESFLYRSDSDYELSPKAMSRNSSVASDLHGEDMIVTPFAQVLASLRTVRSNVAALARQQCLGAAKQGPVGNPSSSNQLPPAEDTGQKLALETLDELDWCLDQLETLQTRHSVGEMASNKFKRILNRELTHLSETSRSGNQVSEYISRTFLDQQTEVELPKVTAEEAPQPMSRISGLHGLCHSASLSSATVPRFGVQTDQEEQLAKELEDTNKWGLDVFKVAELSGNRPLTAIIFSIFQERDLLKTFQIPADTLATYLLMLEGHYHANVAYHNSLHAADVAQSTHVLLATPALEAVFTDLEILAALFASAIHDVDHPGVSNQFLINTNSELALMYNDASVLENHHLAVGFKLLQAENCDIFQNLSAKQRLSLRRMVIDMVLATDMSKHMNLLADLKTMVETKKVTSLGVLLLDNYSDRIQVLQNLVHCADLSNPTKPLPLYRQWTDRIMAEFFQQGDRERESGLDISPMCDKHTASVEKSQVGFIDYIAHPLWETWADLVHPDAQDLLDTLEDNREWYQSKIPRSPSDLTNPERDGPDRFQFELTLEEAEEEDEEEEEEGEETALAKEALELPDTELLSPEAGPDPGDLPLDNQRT
# CAKI-1 = assay: Cytotoxicity against human CAKI-1 cells measured after 72 hrs by MTT assay; assay type: functional, cell-based; details: CAKI-1, 72 h
# A673 = assay: Cytotoxicity against human A673 cells measured after 72 hrs by MTT assay; assay type: functional, cell-based; details: A673, 72 h
# Rec1 = assay: Cytotoxicity against human REC1 cells measured after 72 hrs by MTT assay; assay type: functional, cell-based; details: Rec1, 72 h
# [8] = Cytotoxicity against human 6647 cells measured after 72 hrs by MTT assay; assay type: functional, cell-based; details: Homo sapiens, 6647, 72 h
# SK-N-MC [9] = assay: Cytotoxicity against human SK-N-MC cells measured after 72 hrs by MTT assay; assay type: functional, cell-based
# 786-0 = assay: Cytotoxicity against human 786-0 cells measured after 72 hrs by MTT assay; assay type: functional, cell-based; details: 786-0, 72 h
# [10] = biological target: {'v': 'hERG (KCNH2)', 'o': 'p', 'q': 'Inhibition of human ERG at 10 uM'} (Homo sapiens, UniProt Q12809); assay: Inhibition of human ERG at 10 uM relative to control
# {'v': 'hERG (KCNH2)', 'o': 'p', 'q': 'Inhibition of human ERG at 10 uM'}, sequence (Q12809 whole entry): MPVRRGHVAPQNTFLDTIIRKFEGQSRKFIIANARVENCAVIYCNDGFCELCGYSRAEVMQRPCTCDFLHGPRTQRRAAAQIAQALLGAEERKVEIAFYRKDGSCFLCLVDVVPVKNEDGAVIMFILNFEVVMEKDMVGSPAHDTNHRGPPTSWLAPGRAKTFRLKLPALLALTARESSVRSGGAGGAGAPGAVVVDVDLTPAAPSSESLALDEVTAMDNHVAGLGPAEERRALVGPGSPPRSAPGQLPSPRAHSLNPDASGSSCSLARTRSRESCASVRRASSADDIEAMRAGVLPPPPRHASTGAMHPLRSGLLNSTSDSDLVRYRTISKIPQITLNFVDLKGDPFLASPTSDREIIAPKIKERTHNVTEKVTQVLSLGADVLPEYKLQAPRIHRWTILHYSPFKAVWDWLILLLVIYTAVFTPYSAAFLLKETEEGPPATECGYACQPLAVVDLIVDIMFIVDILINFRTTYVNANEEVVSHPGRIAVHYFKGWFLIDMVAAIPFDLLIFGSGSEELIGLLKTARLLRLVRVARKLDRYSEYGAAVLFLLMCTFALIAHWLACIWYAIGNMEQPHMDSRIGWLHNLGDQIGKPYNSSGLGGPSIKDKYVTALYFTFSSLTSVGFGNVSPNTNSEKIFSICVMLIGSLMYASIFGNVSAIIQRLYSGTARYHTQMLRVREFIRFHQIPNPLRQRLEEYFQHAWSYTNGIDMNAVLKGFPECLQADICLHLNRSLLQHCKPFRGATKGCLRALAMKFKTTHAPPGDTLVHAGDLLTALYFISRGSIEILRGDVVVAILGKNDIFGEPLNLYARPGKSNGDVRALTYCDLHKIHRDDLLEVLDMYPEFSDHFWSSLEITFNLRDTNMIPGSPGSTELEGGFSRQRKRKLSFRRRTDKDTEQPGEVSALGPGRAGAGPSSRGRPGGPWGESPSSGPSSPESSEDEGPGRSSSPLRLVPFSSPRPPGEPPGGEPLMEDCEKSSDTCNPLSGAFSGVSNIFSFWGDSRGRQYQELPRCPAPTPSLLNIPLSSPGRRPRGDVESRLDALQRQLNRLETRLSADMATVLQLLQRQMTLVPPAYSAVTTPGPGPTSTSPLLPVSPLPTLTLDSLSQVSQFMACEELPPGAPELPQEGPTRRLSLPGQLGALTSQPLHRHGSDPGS
# HCT-116 [11] = assay: Anticlonogenic activity against human HCT-116 cells assessed as reduction of cell survival at 0.5 to 20 uM measured after 10 days by SRB staining clonogenic survival assay; assay type: functional, cell-based; details: dose 0.5-20 µM, time 10.0 day
# IGROV-1 = assay: Cytotoxicity against human IGROV-1 cells measured after 72 hrs by MTT assay; assay type: functional, cell-based; details: IGROV-1, 72 h
# [12] = biological target: T2, Histone deacetylase 8 (Homo sapiens) (UniProt Q9BY41); assay: Inhibition on human recombinant HDAC8 at 10 uM measured after 20 min by luminescence glo assay
# T2 sequence (whole entry): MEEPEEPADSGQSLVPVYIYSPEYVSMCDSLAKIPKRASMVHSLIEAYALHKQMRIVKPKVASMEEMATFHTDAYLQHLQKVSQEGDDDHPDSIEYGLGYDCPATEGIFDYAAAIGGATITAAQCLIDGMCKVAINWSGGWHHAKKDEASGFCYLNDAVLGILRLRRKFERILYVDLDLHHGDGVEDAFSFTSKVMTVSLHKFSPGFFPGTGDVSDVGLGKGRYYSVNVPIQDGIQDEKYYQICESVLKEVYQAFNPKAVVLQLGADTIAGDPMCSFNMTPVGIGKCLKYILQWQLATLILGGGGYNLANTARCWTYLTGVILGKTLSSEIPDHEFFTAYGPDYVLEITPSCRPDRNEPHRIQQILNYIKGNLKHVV
# [13] = Cytotoxicity against human TC71 cells measured after 72 hrs by MTT assay; assay type: functional, cell-based; details: TC-71, 72 h
# SK-N-MC [14] = assay: Cytotoxicity against human SK-N-MC cells at 30 uM assessed as cell proliferation rate measured after 72 hrs by MTT assay relative to control; assay type: functional
# [15] = biological target: T3, Protein deacetylase HDAC6 (Homo sapiens) (UniProt Q9UBN7); assay: Inhibition on human recombinant HDAC6 at 10 uM measured after 20 min by luminescence glo assay
# T3 sequence (whole entry): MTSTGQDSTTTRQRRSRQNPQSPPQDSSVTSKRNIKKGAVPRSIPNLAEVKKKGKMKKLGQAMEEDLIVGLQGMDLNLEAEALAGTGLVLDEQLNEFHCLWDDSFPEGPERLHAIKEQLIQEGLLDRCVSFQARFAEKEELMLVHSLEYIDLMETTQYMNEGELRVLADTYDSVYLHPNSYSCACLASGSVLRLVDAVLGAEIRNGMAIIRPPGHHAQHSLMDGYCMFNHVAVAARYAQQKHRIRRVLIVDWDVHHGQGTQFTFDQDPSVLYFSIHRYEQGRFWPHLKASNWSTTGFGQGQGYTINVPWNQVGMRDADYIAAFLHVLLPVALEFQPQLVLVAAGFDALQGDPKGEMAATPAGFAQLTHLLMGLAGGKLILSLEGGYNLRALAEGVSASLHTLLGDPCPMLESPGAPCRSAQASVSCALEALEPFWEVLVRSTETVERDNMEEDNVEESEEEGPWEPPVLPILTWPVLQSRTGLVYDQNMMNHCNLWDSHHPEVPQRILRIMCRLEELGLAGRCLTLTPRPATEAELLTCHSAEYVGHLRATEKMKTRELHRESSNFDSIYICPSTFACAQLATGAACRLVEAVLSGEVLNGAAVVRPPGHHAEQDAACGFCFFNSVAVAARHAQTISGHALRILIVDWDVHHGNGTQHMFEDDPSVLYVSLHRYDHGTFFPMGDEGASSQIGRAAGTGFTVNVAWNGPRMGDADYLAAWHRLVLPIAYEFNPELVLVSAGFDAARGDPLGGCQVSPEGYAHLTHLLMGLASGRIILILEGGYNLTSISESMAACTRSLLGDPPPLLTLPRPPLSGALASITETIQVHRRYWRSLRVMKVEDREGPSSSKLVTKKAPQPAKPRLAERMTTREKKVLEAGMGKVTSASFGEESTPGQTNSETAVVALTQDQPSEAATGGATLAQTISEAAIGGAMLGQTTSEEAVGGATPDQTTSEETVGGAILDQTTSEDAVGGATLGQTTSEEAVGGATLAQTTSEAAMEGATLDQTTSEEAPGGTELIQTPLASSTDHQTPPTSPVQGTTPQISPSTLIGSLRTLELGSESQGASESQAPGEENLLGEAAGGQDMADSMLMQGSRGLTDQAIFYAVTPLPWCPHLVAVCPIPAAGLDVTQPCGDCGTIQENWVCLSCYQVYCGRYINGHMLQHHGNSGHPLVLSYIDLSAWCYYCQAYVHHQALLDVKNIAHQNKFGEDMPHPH
# Histone deacetylase 4 (Homo sapiens), sequence (P56524 whole entry): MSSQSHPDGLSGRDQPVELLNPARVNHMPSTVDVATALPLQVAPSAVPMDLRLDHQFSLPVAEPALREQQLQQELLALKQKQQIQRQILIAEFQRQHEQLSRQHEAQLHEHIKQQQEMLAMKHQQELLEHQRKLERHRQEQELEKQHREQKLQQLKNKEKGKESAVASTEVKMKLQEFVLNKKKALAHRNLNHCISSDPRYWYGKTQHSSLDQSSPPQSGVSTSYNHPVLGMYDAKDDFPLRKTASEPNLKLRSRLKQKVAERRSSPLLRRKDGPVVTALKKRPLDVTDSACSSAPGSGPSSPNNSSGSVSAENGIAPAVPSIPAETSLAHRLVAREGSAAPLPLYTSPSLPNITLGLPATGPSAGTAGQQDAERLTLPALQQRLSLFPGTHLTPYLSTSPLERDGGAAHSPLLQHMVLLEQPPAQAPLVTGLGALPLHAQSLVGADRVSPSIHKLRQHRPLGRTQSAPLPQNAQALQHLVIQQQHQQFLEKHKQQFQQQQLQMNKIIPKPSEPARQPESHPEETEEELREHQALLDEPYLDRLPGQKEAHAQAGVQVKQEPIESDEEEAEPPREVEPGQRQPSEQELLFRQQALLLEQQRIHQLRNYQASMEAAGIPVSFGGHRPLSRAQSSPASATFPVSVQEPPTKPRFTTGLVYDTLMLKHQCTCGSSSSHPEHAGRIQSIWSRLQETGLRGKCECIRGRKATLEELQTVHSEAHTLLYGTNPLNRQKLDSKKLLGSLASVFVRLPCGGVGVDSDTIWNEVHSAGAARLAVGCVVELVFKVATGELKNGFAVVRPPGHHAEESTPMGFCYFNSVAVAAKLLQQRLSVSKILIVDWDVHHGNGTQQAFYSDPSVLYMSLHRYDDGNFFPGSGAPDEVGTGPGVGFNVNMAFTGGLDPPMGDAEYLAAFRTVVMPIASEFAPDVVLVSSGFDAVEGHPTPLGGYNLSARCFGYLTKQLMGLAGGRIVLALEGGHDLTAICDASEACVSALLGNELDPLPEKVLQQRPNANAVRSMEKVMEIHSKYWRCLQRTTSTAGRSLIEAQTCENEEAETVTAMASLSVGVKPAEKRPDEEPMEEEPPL
structure (smiles),measurement,setting,value
Cc1ccc(C(=O)N[C@@H](C(=O)Nc2ccc3c(c2)/C(=C/c2cnc[nH]2)C(=O)N3)c2ccccc2)c(=O)n1Cc1ccc(F)c(F)c1,inhibition,[1],< 30%
same,IC50,PC-3,> 30 µM
same,IC50,HCT-116 [2],> 30 µM
same,IC50,NCI-H82,> 30 µM
same,Activity,HEK293,< 25%
same,inhibition,[3],< 30%
same,Activity,TC-71,Dose-Dependent Effect
same,IC50,TC-32,> 30 µM
same,Activity,[4],< 25%
same,IC50,MCF7,> 30 µM
same,IC50,NCI-H69,> 30 µM
same,inhibition,[5],< 30%
same,inhibition,[6],< 20%
same,inhibition,[7],< 30%
same,IC50,CAKI-1,> 30 µM
same,IC50,A673,> 30 µM
same,IC50,Rec1,> 30 µM
same,IC50,[8],4.7 µM
same,IC50,SK-N-MC [9],3 µM
same,IC50,786-0,> 30 µM
same,inhibition at 10 µM,[10],56%
same,Activity,HCT-116 [11],Dose-Dependent Effect
same,IC50,IGROV-1,> 30 µM
same,inhibition,[12],< 30%
same,IC50,[13],> 30 µM
same,Emax at 30 µM,SK-N-MC [14],83%
same,inhibition,[15],< 30%

# Reference: ChEMBL document CHEMBL5036349, “Development of potent dual PDK1/AurA kinase inhibitors for cancer therapy: Lead-optimization, structural insights, and ADME-Tox profile” (Eur J Med Chem, 2021)
